According to patent publication US9221827B2, “Antimicrobial compounds and methods of making and using the same” (Melinta Therapeutics, Inc., priority 2011, dated 2015):

test system: Escherichia coli strain ATCC25922; assay: standard microdilution assay to determine minimum inhibitory concentrations (MICs); type: cell-based; conditions: Escherichia coli strain ATCC25922, microdilution
How it was run: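 MICs come from CLSI-guided microdilution in 100 μl, run alongside reference-strain performance standards. Values appear as "+" or "−" relative to 16 micrograms/ml, with "N/A" marking missing data.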

| Compound | E. coli ATCC25922 MIC |
| --- | --- |
| CC(C)c1cc(CCCCN)cc(-c2cc3cn(-c4ccc(CNCCCN=C(N)N)c(F)c4)c(=O)nc3[nH]2)c1 [Compound 77] | + (a “+” indicates that the compound has an MIC value of 16 micrograms/ml or less) |
| CC(C)c1cccc(OCCCN)c1NC(=O)Nc1nc(=O)c(-c2ccc(CNCCCNC(=N)N)cc2)c[nH]1 [Compound 186] | − (a “−” indicates that the compound has an MIC value greater than 16 micrograms/ml) |
| CCc1cc(CCCCN)cc(-c2cc3cn(-c4ccc(CNCCCNC(=N)N)cc4)c(=O)nc3[nH]2)c1Cl [Compound 217] | + (a “+” indicates that the compound has an MIC value of 16 micrograms/ml or less) |
| COC(=O)C(NCCCNC(=N)N)c1ccc(-n2cc3cc(-c4cc(CCCC(C)N)cc(C(F)(F)F)c4)[nH]c3nc2=O)cc1 (stereo not shown) [Compound 496] | + (a “+” indicates that the compound has an MIC value of 16 micrograms/ml or less) |
| C[C@H](NCCCNC(=N)N)c1ccc(-n2cc3cc(-c4ccc(C(NC5CN(C(=N)N)C5)C(F)(F)F)cc4)[nH]c3nc2=O)cc1 (stereo partly shown) [Compound 227] | + (a “+” indicates that the compound has an MIC value of 16 micrograms/ml or less) |
| Cc1cc(CCC[C@H](C)N)cc(-c2cc3cn(-c4ccc(CNCCCNC(=N)N)cc4)c(=O)nc3[nH]2)c1Cl [Compound 313] | + (a “+” indicates that the compound has an MIC value of 16 micrograms/ml or less) |
| Cc1c(Cl)cc(-c2cc3cn(-c4ccc(CNCCCNC(=N)N)cc4)c(=O)nc3[nH]2)cc1CCCCN [Compound 109] | + (a “+” indicates that the compound has an MIC value of 16 micrograms/ml or less) |
| C[C@H](NCCCNC(=N)N)c1ccc(-n2cc3cc(-c4cc(CCCCN)cc(F)c4Cl)[nH]c3nc2=O)cc1 [Compound 67] | + (a “+” indicates that the compound has an MIC value of 16 micrograms/ml or less) |
| C[C@H](CNCc1ccc(-n2cc3cc(-c4cc(CCCCN)cc(OC(F)(F)F)c4)[nH]c3nc2=O)cc1)CNC(=N)N [Compound 34] | + (a “+” indicates that the compound has an MIC value of 16 micrograms/ml or less) |
| C[C@@H](CNCc1ccc(-n2cc3cc(-c4cc(CCCCN)cc(OC(F)(F)F)c4)[nH]c3nc2=O)cc1)CNC(=N)N [Compound 35] | + (a “+” indicates that the compound has an MIC value of 16 micrograms/ml or less) |
| N=C(N)NCCCNCc1ccc(-n2cc3cc(-c4cc(CC5CC(N)C5)cc(C(F)(F)F)c4)[nH]c3nc2=O)cc1 (stereo not shown) [Compound 324] | + (a “+” indicates that the compound has an MIC value of 16 micrograms/ml or less) |
| C[C@H](N)CCCc1cc(OC(F)(F)F)cc(-c2cc3cn(-c4ccc([C@H](C)NCCCNC(=N)N)cc4)c(=O)nc3[nH]2)c1 [Compound 230] | + (a “+” indicates that the compound has an MIC value of 16 micrograms/ml or less) |
| N=C(N)NCCCNCc1ccc(-n2cc3cc(-c4cc(CCCCN)cc(OC(F)(F)F)c4)[nH]c3nc2=O)cc1F [Compound 39] | + (a “+” indicates that the compound has an MIC value of 16 micrograms/ml or less) |
| N=C(N)NCCCNCc1ccc(-n2cc3cc(-c4cc(CCC(O)CN)ccc4F)[nH]c3nc2=O)cc1 (stereo not shown) [Compound 258] | + (a “+” indicates that the compound has an MIC value of 16 micrograms/ml or less) |
| CC(C)(N)CCc1cc(-c2cc3cn(-c4ccc(CNCCCNC(=N)N)cc4)c(=O)nc3[nH]2)cc(C(F)(F)F)c1 [Compound 259] | + (a “+” indicates that the compound has an MIC value of 16 micrograms/ml or less) |
| CC(N)CCCc1cc(-c2cc3cn(-c4ccc(CNCCCNC(=N)N)cc4)c(=O)nc3[nH]2)c(F)c(C(F)(F)F)c1 (stereo not shown) [Compound 275] | + (a “+” indicates that the compound has an MIC value of 16 micrograms/ml or less) |
| Cc1cc(CCCCN)cc(-c2cc3cn(-c4ccc(CNCCCNC(=N)N)cc4)c(=O)nc3[nH]2)c1C(F)(F)F [Compound 222] | + (a “+” indicates that the compound has an MIC value of 16 micrograms/ml or less) |
| CCC(N)COC(C)c1cc(-c2cc3cn(-c4ccc([C@H](C)NCCCNC(=N)N)cc4)c(=O)nc3[nH]2)cc(C(F)(F)F)c1 (stereo partly shown) [Compound 480] | + (a “+” indicates that the compound has an MIC value of 16 micrograms/ml or less) |
| CCc1cc(CCCC(C)N)cc(-c2cc3cn(-c4ccc(C(C)NCCCNC(=N)N)cc4)c(=O)nc3[nH]2)c1F (stereo not shown) [Compound 300] | + (a “+” indicates that the compound has an MIC value of 16 micrograms/ml or less) |

same assay, conditions: Escherichia coli strain ATCC25922, standard microdilution assay

| Compound | E. coli ATCC25922 MIC |
| --- | --- |
| CC(N)CCCc1cc(-c2cc3cn(-c4ccc(CN5CCCCC5=N)cc4)c(=O)nc3[nH]2)cc(C(F)(F)F)c1 (stereo not shown) [Compound 366] | − (a “−” indicates that the compound has an MIC value greater than 16 micrograms/ml) |
| CCC[C@H](NCCCNC(=N)N)c1ccc(-n2cc3cc(-c4cc(CCC[C@H](C)N)cc(Cl)c4F)[nH]c3nc2=O)cc1 [Compound 415] | + (a “+” indicates that the compound has an MIC value of 16 micrograms/ml or less) |
| C[C@H](N)CCCc1cc2c(c(-c3cc4cn(-c5ccc([C@H](C)NCCCNC(=N)N)cc5)c(=O)nc4[nH]3)c1)CC=C2 [Compound 457] | + (a “+” indicates that the compound has an MIC value of 16 micrograms/ml or less) |
| CC(N)COCc1cc(SC(F)(F)F)cc(-c2cc3cn(-c4ccc(C(C)NCCCNC(=N)N)cc4)c(=O)nc3[nH]2)c1 (stereo not shown) [Compound 345] | + (a “+” indicates that the compound has an MIC value of 16 micrograms/ml or less) |
| C[C@H](NCCCNC(=N)N)c1ccc(-n2cc3cc(-c4cc(C[C@H]5C[C@H](CN)C5)cc(SC(F)(F)F)c4)[nH]c3nc2=O)cc1 [Compound 403] | + (a “+” indicates that the compound has an MIC value of 16 micrograms/ml or less) |
| N=C(N)NCCCNCc1ccc(-n2cc3cc(-c4cc(C5CCC(N)CC5)cc(C(F)(F)F)c4)[nH]c3nc2=O)cc1 (mixture of isomers) [Compound 425] | + (a “+” indicates that the compound has an MIC value of 16 micrograms/ml or less) |
| N=C(N)NCCCNCc1ccc(-n2cc3cc(-c4cc(CC5CC(N)C5)cc(Cl)c4F)[nH]c3nc2=O)cc1 (stereo not shown) [Compound 333] | + (a “+” indicates that the compound has an MIC value of 16 micrograms/ml or less) |
| CC(C)c1cc(CCC[C@H](C)N)cc(-c2cc3cn(-c4ccc(CNCCCNC(=N)N)cc4)c(=O)nc3[nH]2)c1F [Compound 408] | + (a “+” indicates that the compound has an MIC value of 16 micrograms/ml or less) |
| CC(NCCCNC(=N)N)c1ccc(-n2cc3cc(-c4cc(OC(F)(F)F)cc(C5CCC(CN)O5)c4)[nH]c3nc2=O)cc1 (stereo not shown) [Compound 436] | + (a “+” indicates that the compound has an MIC value of 16 micrograms/ml or less) |
| C[C@H](NCCCNC(=N)N)c1ccc(-n2cc3cc(-c4cc(CC[C@@H](C)N)cc(Cl)c4F)[nH]c3nc2=O)cc1 [Compound 411] | + (a “+” indicates that the compound has an MIC value of 16 micrograms/ml or less) |
| C[C@H](N)c1ccc(-n2cc3cc(-c4cc(CCC5(CN)CC5)cc(SC(F)(F)F)c4)[nH]c3nc2=O)cc1 [Compound 358] | − (a “−” indicates that the compound has an MIC value greater than 16 micrograms/ml) |
| CC(N)CCCc1cccc(-c2cc3cn(-c4ccc(CNCCCNC(=N)N)cc4)c(=O)nc3[nH]2)n1 (stereo not shown) [Compound 370] | + (a “+” indicates that the compound has an MIC value of 16 micrograms/ml or less) |
